{"source": "PubChem BioAssay AID624396", "about": "(The Scripps Research Institute Molecular Screening Center, 2012)", "experiment_in_all_cases": "pro-apoptotic nuclear morphology in cancer cells – imaging, DAPI staining, cell line panel, probe, mechanism study for MCL1-BIM inhibitor project, late-stage follow-up (AID 624396)", "key": {"[1]": {"system": "1780 MCl1", "conditions": "cancer cell panel apoptosis"}, "[2]": {"system": "1863 BCL-XL", "conditions": "cancer cell panel apoptosis"}, "[3]": {"system": "DHL-10", "conditions": "cancer cell panel apoptosis, single IC50 determination, other campaign"}, "[4]": {"system": "DHL-6", "conditions": "cancer cell panel apoptosis"}, "[5]": {"system": "NCI-H929", "conditions": "cancer cell panel apoptosis"}}, "note": "“And” between values parts separate entries of the source, which are not always exact repeats. Identical values can stand only once.", "data": [{"smiles": "CCN1CCN(C(c2ccc(C(F)(F)F)cc2)c2ccc3cccnc3c2O)CC1", "note": "(stereo not given)", "values": [{"measurement": "IC50", "setting": "[1]", "value": "0.7 µM and 0.3 µM"}, {"measurement": "IC50", "setting": "[2]", "value": "1.2 µM and 1.1 µM"}, {"measurement": "IC50", "setting": "[3]", "value": "> 25", "unit": "µM"}, {"measurement": "IC50", "setting": "[4]", "value": "2.2 µM and 3.3 µM"}, {"measurement": "IC50", "setting": "[5]", "value": "3.6 µM and 1.6 µM"}]}]}
